# Test results taken from the supplement of paper PMC10307832.
# How the values were obtained:
# Assay in all cases: relative viability (nuclei count vs DMSO), 5 days (fraction); higher = more cells survive
# Dabrafenib + Tozasertib = compound: CC(C)(C)c1nc(-c2cccc(NS(=O)(=O)c3c(F)cccc3F)c2F)c(-c2ccnc(N)n2)s1 [Dabrafenib] + Cc1cc(Nc2cc(N3CCN(C)CC3)nc(Sc3ccc(NC(=O)C4CC4)cc3)n2)n[nH]1 [Tozasertib] (partner 0.1 µM)
# Method in brief: (§1)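 Relative viability divides the nuclei count in treated wells by that in vehicle wells. Lung cancer cell lines were seeded in 1536-well plates, dosed by pin tool the next day, and fixed and stained after 5 days in one step with final 0.05% Triton X-100, 1% formaldehyde and 1 ug/ml Hoechst. Dosing was a single drug or a fixed anchor-drug dose plus five library-drug doses (not always all listed) in √10 steps, and values are medians of duplicate plates imaged at 4×.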
# Dabrafenib + Dasatinib = compound: CC(C)(C)c1nc(-c2cccc(NS(=O)(=O)c3c(F)cccc3F)c2F)c(-c2ccnc(N)n2)s1 [Dabrafenib] + Cc1nc(Nc2ncc(C(=O)Nc3c(C)cccc3Cl)s2)cc(N2CCN(CCO)CC2)n1 [Dasatinib] (partner 0.075 µM)
# Method in brief: as §1
# Dabrafenib + Pemetrexed = compound: CC(C)(C)c1nc(-c2cccc(NS(=O)(=O)c3c(F)cccc3F)c2F)c(-c2ccnc(N)n2)s1 [Dabrafenib] + Nc1nc2[nH]cc(CCc3ccc(C(=O)N[C@@H](CCC(=O)O)C(=O)O)cc3)c2c(=O)[nH]1 [Pemetrexed] (partner 0.2 µM)
# Method in brief: as §1
# Dabrafenib + Vorinostat = compound: CC(C)(C)c1nc(-c2cccc(NS(=O)(=O)c3c(F)cccc3F)c2F)c(-c2ccnc(N)n2)s1 [Dabrafenib] + O=C(CCCCCCC(=O)Nc1ccccc1)NO [Vorinostat] (partner 1 µM)
# Method in brief: as §1
# VX-702 + Pemetrexed = compound: NC(=O)c1ccc(N(C(N)=O)c2c(F)cccc2F)nc1-c1ccc(F)cc1F [VX-702] + Nc1nc2[nH]cc(CCc3ccc(C(=O)N[C@@H](CCC(=O)O)C(=O)O)cc3)c2c(=O)[nH]1 [Pemetrexed] (partner 0.2 µM)
# Method in brief: as §1
# VX-702 + Olaparib = compound: NC(=O)c1ccc(N(C(N)=O)c2c(F)cccc2F)nc1-c1ccc(F)cc1F [VX-702] + O=C(c1cc(Cc2n[nH]c(=O)c3ccccc23)ccc1F)N1CCN(C(=O)C2CC2)CC1 [Olaparib] (partner 8 µM)
# Method in brief: as §1
cell line,measurement,setting,value
SW 900,relative viability,Dabrafenib + Tozasertib; first compound 0.009487 µM,0.711
same,relative viability,Dabrafenib + Tozasertib; first compound 0.03 µM,0.527
same,relative viability,Dabrafenib + Tozasertib; first compound 0.3 µM,0.632
same,relative viability,Dabrafenib + Dasatinib; first compound 0.009487 µM,0.581
same,relative viability,Dabrafenib + Dasatinib; first compound 0.03 µM,0.371
same,relative viability,Dabrafenib + Dasatinib; first compound 0.3 µM,0.705
same,relative viability,Dabrafenib + Pemetrexed; first compound 0.009487 µM,0.494
same,relative viability,Dabrafenib + Pemetrexed; first compound 0.09487 µM,0.477
same,relative viability,Dabrafenib + Pemetrexed; first compound 0.3 µM,0.45
same,relative viability,Dabrafenib + Vorinostat; first compound 0.009487 µM,0.455
same,relative viability,Dabrafenib + Vorinostat; first compound 0.09487 µM,0.714
same,relative viability,Dabrafenib + Vorinostat; first compound 0.3 µM,0.596
same,relative viability,VX-702 + Pemetrexed; first compound 0.02 µM,0.51
same,relative viability,VX-702 + Pemetrexed; first compound 0.2 µM,0.488
same,relative viability,VX-702 + Pemetrexed; first compound 0.6325 µM,0.474
same,relative viability,VX-702 + Pemetrexed; first compound 2 µM,0.464
same,relative viability,VX-702 + Olaparib; first compound 0.02 µM,0.772
same,relative viability,VX-702 + Olaparib; first compound 0.2 µM,0.878
same,relative viability,VX-702 + Olaparib; first compound 0.6325 µM,0.887
same,relative viability,VX-702 + Olaparib; first compound 2 µM,0.893
